Where a name gives a salt, the structure may show the parent alone.
Tests used:
GFP-c-Abl = assay: Nuclear targeting of GFP-c-Abl in transiently transfected 293 cells; assay type: cell-based, human
Text: (§1) Cell culture. Human HeLa cervical cancer cells, HCT116/vector (HCT116 colorectal carcinoma cells stably transfected with an empty vector), HCT116/MUC1 (HCT116 colorectal carcinoma cells stably transfected with an expression vector encoding a MUC1 polypeptide), HCT116/MUC1(Y46F) (HCT116 colorectal carcinoma cells stably transfected with an expression vector encoding a mutant MUC1 polypeptide containing an amino acid substitution at position 46 changing a tyrosine (Y) to phenylalanine (F)) colon cancer cells (Ren et al., (2002) J. Biol. Chem. 277: 17616-17622) and 293 cells were cultured in Dulbecco's modified medium with 10% heat-inactivated fetal bovine serum, 100 units/ml penicillin, 100 μg/ml streptomycin and 2 mM L-glutamine. Human ZR-75-1/vector (ZR-75-1 breast cancer cells stably transfected with an empty vector) and ZR-75-1/MUC1siRNA (ZR-75-1 breast cancer cells stably transfected with an expression vector encoding an siRNA specific for MUC1) breast cancer cells (Ren et al., (2004) Cancer Cell 5:163-175) were grown in RPMI1640 medium containing 10% heat-inactivated fetal bovine serum and antibiotics. Cells were treated with 1 μM adriamycin (ADR; Calbiochem), 100 μM cisplatin (CDDP; Sigma) or 10 μM STI571 (Gleevec; Novartis, Basel, Switzerland).
Cell transfections. […]

c-Abl = assay: Nuclear and cytosolic c-Abl in HeLa/vector and HeLa/MUC1 cells after genotoxic agents (subcellular fractionation, immunoblot); assay type: cell-based, human; conditions: 1 μM ADR, 2 hours
Text: as §1
Subcellular fractionation. Nuclear fractions were prepared as described (Kharbanda et al., (1996) Cancer Res. 56:3617-3621). Cytosolic fractions were prepared as described (Hill et al., (2004) EMBO J. 23:2134-2145). Cell membrane fractions were prepared with the Plasma Membrane Extraction Kit (BioVision Research Products, Mountain View, Calif.). Mitochondria were purified as described (Ren et al., (2004) Cancer Cell 5:163-175; Ren et al., (2006) Oncogene 25:20-31).
Immunoprecipitations and immunoblot analysis. Cell lysates were prepared as described (Kharbanda et al., (1995) Nature 376:785-788); Yoshida et al., (2005) Nat. Cell Biol. 7:278-285). Soluble proteins were incubated with anti-MUC1-N (Kufe et al., (1984) Hybridoma 3:223-232), anti-MUC1-C (Ab5; Neomarker, Montreal, Quebec), anti-Flag (Sigma, St. Louis, Mo.), anti-c-Abl (Ab3; Oncogene, San Diego, Calif.) or anti-14-3-3 (Abcam Inc., Cambridge, Mass.) antibodies for 2 hours at 4° C., followed by precipitation with protein G-Sepharose beads for 1 hour. […] Intensity of the signals was determined by densitometric scanning. Statistical significance was determined by the Student's t-test.

HCT116 cells = assay: Assessment of apoptosis (sub-G1 DNA, propidium iodide, FACScan); assay type: cell-based, human; conditions: 10 μM STI571 with CDDP, 12 h
[1] = tested on: MUC1-CD (purified MUC1 cytoplasmic domain, thrombin-cleaved from GST-MUC1-CD)
[2] = tested on: MUC1 (mucin 1), wild-type, expressed in cells as heterodimer of MUC1-N and MUC1-C
[3] = tested on: MUC1(Y60F), MUC1 with tyrosine 60 of the cytoplasmic domain changed to phenylalanine

## COc1cccc2c1C(=O)c1c(O)c3c(c(O)c1C2=O)C[C@@](O)(C(=O)CO)C[C@@H]3O[C@H]1C[C@H](N)[C@H](O)[C@H](C)O1 [ADR, adriamycin]
GFP-c-Abl; GFP-c-Abl with coexpressed MUC1, 2 hours
  ADR-induced nuclear targeting of c-Abl: attenuated by coexpression of MUC1
GFP-c-Abl; GFP-c-Abl without MUC1, ADR, 2 hours
  nuclear targeting of GFP-tagged c-Abl: increased by ADR treatment
c-Abl; HeLa/MUC1 cells
  nuclear targeting of c-Abl: little to no nuclear targeting of c-Abl
c-Abl; HeLa/vector cells
  nuclear targeting of c-Abl: targeting of c-Abl to the nucleus

## Cc1ccc(NC(=O)c2ccc(CN3CCN(C)CC3)cc2)cc1Nc1nccc(-c2cccnc2)n1 [STI751, imatinib mesylate]
HCT116 cells; HCT116/MUC1(Y60F) cells
  effect on CDDP-induced apoptosis (sub-G1 DNA): significantly attenuated
HCT116 cells; HCT116/MUC1 cells
  effect on CDDP-induced apoptosis (sub-G1 DNA): no significant effect
HCT116 cells; HCT116/vector cells
  effect on CDDP-induced apoptosis (sub-G1 DNA): significantly attenuated

## GST-c-Abl (glutathione-S-transferase fused in frame with a wild-type c-Abl polypeptide)
[1]
  phosphorylation of MUC1-CD (in vitro kinase assay, 32P-ATP, SDS-PAGE and autoradiography): Analysis of the reaction products by SDS-PAGE and autoradiography showed phosphorylation of MUC1-CD
MUC1-CD(Y60F)
  phosphorylation of MUC1-CD(Y60F) (in vitro kinase assay, 32P-ATP, SDS-PAGE and autoradiography): c-Abl phosphorylation was substantially decreased with the MUC1-CD(Y60F) mutant

## GST-c-Abl(K-R) (GST fused to a kinase defective mutant c-Abl, lysine to arginine in the active site)
[1]
  phosphorylation of MUC1-CD (in vitro kinase assay, 32P-ATP, SDS-PAGE and autoradiography): There was no detectable phosphorylation when MUC1-CD was incubated with a purified kinase-inactive c-Abl(K-R)

## c-Abl (nonreceptor c-Abl tyrosine kinase), endogenous in human cell lines
[2]
  c-Abl Thr-735 phosphorylation (anti-c-Abl precipitates, immunoblot anti-phospho-c-Abl-Thr-735): c-Abl Thr-735 phosphorylation was attenuated by expression of MUC1
[3]
  c-Abl Thr-735 phosphorylation (anti-c-Abl precipitates, immunoblot anti-phospho-c-Abl-Thr-735): c-Abl Thr-735 phosphorylation was attenuated by expression of MUC1, but not MUC1(Y60F), in HCT116 cells

Source: patent publication US20080107661A1, “MUC1 and ABL” (Dana-Farber Cancer Institute, Inc., priority 2006, published 2008)
